Assay results taken from US20030187058A1, “Combination of lipoic acids and conjugated acids for treating diabetic disorders” (priority 2000, published 2003).

Experiments:
NIDDM patients = conditions: 800 mg each day for 4 months; cited from earlier work
diabetic neuropathy = conditions: intravenous 600 mg a day for 3 weeks; cited from earlier work
diabetic polyneuropathy = conditions: 3-week intravenous and subsequent 6-months oral treatment, cited from earlier work
[1] = tested on: patients with type II diabetes; conditions: single parenteral dose of 1,000 mg; cited from earlier work
soleus muscle = assay: 2-Deoxyglucose uptake (glucose transport activity) in soleus muscle removed from treated obese Zucker rats, incubated in vitro; assay type: in vivo, obese Zucker rat (fa/fa); conditions: obese Zucker rats treated 18-20 days; for 2-Deoxyglucose level, Increase: insulin-stimulated minus basal; for 2-Deoxyglucose level, + Insulin [5 mU/ml] / 2-Deoxyglucose level, Basal: R-LA 10 mg/kg ip, CLA 0.3 mg/kg (table) by gavage; for 2-Deoxyglucose level, + Insulin [5 mU/ml]: insulin 5 mU/ml in vitro; for 2-Deoxyglucose level, Basal: no insulin
From the text: (§1) The obese Zucker rat (fa/fa) is an animal model of insulin resistance, glucose intolerance, hyperinsulinaemia and dyslipidaemia. This model was used to determine the effect of four different forms of diet (control, R-lipoic acid (R—LA), conjugated linoleic acid (CLA) and a combination of conjugated linoleic acid and R-lipoic acid) on insulin-induced skeletal muscle glucose transport activity and on glucose tolerance.
(§2) The test animals were maintained on regular chow and water ad libitum. […] R-lipoic acid was administered by intraperitoneal injection; conjugated linoleic acid by gavage. The treatment period lasted for 18-20 days.
(§3) 24 hours after the final treatment and having been restricted to 4 g chow during the previous 13 hours, animals were deeply anaesthetised with pentobarbital sodium (50 mg/kg ip). Right soleus muscles and both right and left epitrochlearis muscles were surgically removed and prepared for incubation in vitro. Muscles were prepared as described by Peth J A et al. (Am J Physiol Regulatory Integrative Comp Physiol 2000; 278: R453-R459). Glucose transport activity was then determined as described by Hendriksen and Halseth (J Appl Physiol 1994; 76: 1862-1867).

epitrochlearis muscle = assay: 2-Deoxyglucose uptake (glucose transport activity) in epitrochlearis muscle removed from treated obese Zucker rats, incubated in vitro; assay type: in vivo, obese Zucker rat (fa/fa); conditions: obese Zucker rats treated 18-20 days; for 2-Deoxyglucose level, Increase: insulin-stimulated minus basal; for 2-Deoxyglucose level, + Insulin [5 mU/ml] / 2-Deoxyglucose level, Basal: R-LA 10 mg/kg ip, CLA 0.3 mg/kg (table) by gavage; for 2-Deoxyglucose level, + Insulin [5 mU/ml]: insulin 5 mU/ml in vitro; for 2-Deoxyglucose level, Basal: no insulin
From the text: as §1, §2, §3

skeletal muscle = assay: Insulin-induced skeletal muscle glucose transport activity in treated obese Zucker rats (summary statement); assay type: in vivo, obese Zucker rat (fa/fa); conditions: each substance alone
From the text: as §1
The test animals were maintained on regular chow and water ad libitum. At the age of 9-10 weeks, the animals were assigned to either a vehicle-treated control group or to intervention groups receiving either R-lipoic acid (10 mg/kg bodyweight), conjugated linoleic acid (c9,t11:t10,c12; 50:50; 0.3 g/kg bodyweight) or both. R-lipoic acid was administered by intraperitoneal injection; conjugated linoleic acid by gavage. The treatment period lasted for 18-20 days.
24 hours after the final treatment and having been restricted to 4 g chow during the previous 13 hours, animals were deeply anaesthetised with pentobarbital sodium (50 mg/kg ip). Right soleus muscles and both right and left epitrochlearis muscles were surgically removed and prepared for incubation in vitro. […] Glucose transport activity was then determined as described by Hendriksen and Halseth (J Appl Physiol 1994; 76: 1862-1867).

| Molecule | cardiovascular autonomic symptoms (NIDDM patients) | symptomatic complaints (diabetic neuropathy) | neuropathic deficits (diabetic polyneuropathy) | neuropathic symptoms (diabetic polyneuropathy; versus placebo) | glucose utilization [1] | 2-Deoxyglucose level, Increase (soleus muscle) | 2-Deoxyglucose level, + Insulin [5 mU/ml] (soleus muscle) | 2-Deoxyglucose level, Basal (soleus muscle) | 2-Deoxyglucose level, Increase (epitrochlearis muscle) | 2-Deoxyglucose level, + Insulin [5 mU/ml] (epitrochlearis muscle) | 2-Deoxyglucose level, Basal (epitrochlearis muscle) | skeletal muscle glucose transport activity following stimulation by insulin, beyond the increase in the vehicle-treated control group (skeletal muscle) |
| --- | --- | --- | --- | --- | --- | --- | --- | --- | --- | --- | --- | --- |
| O=C(O)CCCCC1CCSS1 (stereo not shown) [lipoic acid, 5-(1,2-dithiolan-3-yl)valeric acid] | no significant change | decreased | appeared to have a beneficial effect | no effect on neuropathic symptoms distinguishable from placebo | distinct improvement |  |  |  |  |  |  |  |
| conjugated linoleic acid [CLA] |  |  |  |  |  | 261 +/− 13 pmol/mg muscle | 492 +/− 9 pmol/mg muscle | 231 +/− 6 pmol/mg muscle | 123 +/− 13 pmol/mg muscle | 248 +/− 14 pmol/mg muscle | 126 +/− 4 pmol/mg muscle | Neither R-lipoic acid nor conjugated linoleic acid alone increased |
| O=C(O)CCCC[C@@H]1CCSS1 [R-LA, (R)-5-(1,2-dithiolan-3-yl)-valeric acid] |  |  |  |  |  | 258 +/− 16 pmol/mg muscle | 481 +/− 19 pmol/mg muscle | 224 +/− 7 pmol/mg muscle | 102 +/− 11 pmol/mg muscle | 225 +/− 8 pmol/mg muscle | 123 +/− 3 pmol/mg muscle | Neither R-lipoic acid nor conjugated linoleic acid alone increased |
